Source: patent US20230146455A1, “TREATMENT OF INFLAMMATORY DISEASES WITH PEPTIDES AND PHARMACEUTICAL COMPOSITIONS” (Yuyu Pharma, Inc., priority 2020, published 2023)
“And” between values parts separate entries of the source, which are not always exact repeats. Identical values can stand only once. Where a SMILES comes first, the peptide text is derived from it. [ ]: non-standard residue; d: D form. Hyp = O=C(O)[C@@H]1C[C@@H](O)CN1

Assays:
[1] = tested on: CCL20/MIP-3 alpha; test: Example 9 Luminex, LPS hPBMCs: CCL20/MIP-3 alpha; format: cell-based, human
Description: (§1) Treatment Human PBMCs were pretreated with YY-101, YDE-011 and YDE-043 or reference compound; Xiidra® at various concentration (ranging from 1 nM to 100 uM) for 2 h before stimulation. An equal volume of 0.5% DMSO was used as a vehicle control. Then, the cells were treated with LPS at 5 ug/ml. The supernatants from treated cells were harvested at 24 h and placed in a 96 well for Luminex cytokine & chemokine profiling using a Luminex 200 multiplex assay (Luminex; R&D system, USA).
(§2) The main study arm with triplicate wells per group in a 24-well plate: • 1. Blank • 2. PBMC: 0.5% DMSO • 3. PBMC+LPS (5 ug/ml) • 4. PBMC+YY-101 100 uM • 5. PBMC+YY-101 10 uM • 6. PBMC+YY-101 1 uM • 7. PBMC+YY-101 0.1 uM • 8. PBMC+YY-101 0.01 uM • 9. PBMC+LPS (5 ug/ml)+Xiidra®100 uM • 10. PBMC+LPS (5 ug/ml)+Xiidra® 10 uM • 11. PBMC+LPS (5 ug/ml)+Xiidra® 1 uM • 12. PBMC+LPS (5 ug/ml)+Xiidra®0.1 uM • 13. PBMC+LPS (5 ug/ml)+Xiidra®0.01 uM • 14. PBMC+LPS (5 ug/ml)+Xiidra®0.001 uM • 15. PBMC+LPS (5 ug/ml)+YY-101 100 uM • 16. PBMC+LPS (5 ug/ml)+YY-101 10 uM • 17. PBMC+LPS (5 ug/ml)+YY-101 1 uM • 18. PBMC+LPS (5 ug/ml)+YY-101 0.1 uM • 19. PBMC+LPS (5 ug/ml)+YY-101 0.01 uM • 20. PBMC+LPS (5 ug/ml)+YY-101 0.001 uM • 21. PBMC+LPS (5 ug/ml)+YDE-011 100 uM • 22. PBMC+LPS (5 ug/ml)+YDE-011 10 uM • 23. PBMC+LPS (5 ug/ml)+YDE-011 1 uM • 24. PBMC+LPS (5 ug/ml)+YDE-011 0.1 uM • 25. PBMC+LPS (5 ug/ml)+YDE-011 0.01 uM • 26. PBMC+LPS (5 ug/ml)+YDE-011 0.001 uM • 27. PBMC+LPS (5 ug/ml)+YDE-043 100 uM • 28. PBMC+LPS (5 ug/ml)+YDE-043 10 uM • 29. PBMC+LPS (5 ug/ml)+YDE-043 1 uM • 30. PBMC+LPS (5 ug/ml)+YDE-043 0.1 uM • 31. PBMC+LPS (5 ug/ml)+YDE-043 0.01 uM • 32. PBMC+LPS (5 ug/ml)+YDE-043 0.001 uM
(§3) Multiplex assay was used to measure 30 cytokines and chemokines. The 1:2, 1:10 and 1:200 diluted cell supernatant and serial dilution of the standard were dispensed into a 96 well plate at 50 ul/well. Then, the pre-mixed cocktail of antibody-coated magnetic beads was dispensed at 50 ul/well and incubated at room temperature for 2 h in a horizontal orbital microplate shaker at 800±500 rpm. The beads were washed using a magnetic device to prevent loss. The biotin-antibody was dispensed in 50 ul of each well and incubated at room temperature for 1 h in a shaker at 800±500 rpm. After washing, streptavidin-PE was added at 50 ul/well and incubated at room temperature for 30 min in a shaker under the same conditions. Finally, after washing, wash buffer (100 ul/well) was added to the plate and incubated in a shaker for 2 min. The Luminex™ 200 setting were set according to the manufacturer's protocol. The data was calculated with a standard five-parameter logistic nonlinear regression analysis of the data (xPonent software 4.2, USA). The levels of cytokine/chemokine are normalized to the live cell counts (1×10^5 cells/mL) and presented as concentrations per mL (pg/mL or ng/mL).

[2] = tested on: GM-CSF; test: Example 9 Luminex, LPS hPBMCs: GM-CSF; format: cell-based, human
Description: as §1, §2, §3

[3] = PBMC + LPS(5 ug/ml) + test article 0.001 uM, Mean
[4] = PBMC + LPS(5 ug/ml) + test article 0.001 uM, individual replicate
[5] = PBMC + LPS(5 ug/ml) + test article 0.01 uM, Mean
[6] = PBMC + LPS(5 ug/ml) + test article 0.01 uM, individual replicate
[7] = PBMC + LPS(5 ug/ml) + test article 0.1 uM, Mean
[8] = PBMC + LPS(5 ug/ml) + test article 0.1 uM, individual replicate
[9] = PBMC + LPS(5 ug/ml) + test article 1 uM, Mean
[10] = PBMC + LPS(5 ug/ml) + test article 1 uM, individual replicate
[11] = PBMC + LPS(5 ug/ml) + test article 10 uM, Mean
[12] = PBMC + LPS(5 ug/ml) + test article 10 uM, individual replicate
[13] = PBMC + LPS(5 ug/ml) + test article 100 uM, Mean
[14] = PBMC + LPS(5 ug/ml) + test article 100 uM, individual replicate
[15] = PBMC + LPS(5 ug/ml) + test article 0.001 uM, single replicates
[16] = PBMC + LPS(5 ug/ml) + test article 0.01 uM, single replicates
[17] = PBMC + LPS(5 ug/ml) + test article 0.1 uM, single replicates
[18] = PBMC + LPS(5 ug/ml) + test article 1 uM, single replicates
[19] = PBMC + LPS(5 ug/ml) + test article 10 uM, single replicates
[20] = PBMC + LPS(5 ug/ml) + test article 100 uM, single replicates

CC(C)C[C@H](NC(=O)CNC(=O)[C@H](CC(C)C)NC(=O)[C@H](CCC(N)=O)NC(=O)CNC(=O)[C@@H]1C[C@@H](O)CN1)C(=O)N[C@@H](C)C(=O)NCC(=O)N1CCC[C@H]1C(=O)N[C@@H](CCCCN)C(=O)O [YDE-011] (H-[Hyp]GQLGLAGPK-OH)
Concentration, CCL20/MIP-3 alpha [1, 3]: 246.5 pg/mL
MFI, CCL20/MIP-3 alpha [1, 3]: 263.3
conc/live cell, CCL20/MIP-3 alpha [1, 3]: 46.9 pg/10^5
Concentration, CCL20/MIP-3 alpha [1, 4]: 264.2 pg/mL and 223.2 pg/mL and 252.1 pg/mL
MFI, CCL20/MIP-3 alpha [1, 4]: 284.5 and 235.5 and 270.0
conc/live cell, CCL20/MIP-3 alpha [1, 4]: 58.7 pg/10^5 and 38.5 pg/10^5 and 43.5 pg/10^5
Concentration, CCL20/MIP-3 alpha [1, 5]: 255.6 pg/mL
MFI, CCL20/MIP-3 alpha [1, 5]: 274.2
conc/live cell, CCL20/MIP-3 alpha [1, 5]: 44.2 pg/10^5
Concentration, CCL20/MIP-3 alpha [1, 6]: 233.3 pg/mL and 258.8 pg/mL and 274.6 pg/mL
MFI, CCL20/MIP-3 alpha [1, 6]: 247.5 and 278.0 and 297.0
conc/live cell, CCL20/MIP-3 alpha [1, 6]: 37.0 pg/10^5 and 41.7 pg/10^5 and 53.8 pg/10^5
Concentration, CCL20/MIP-3 alpha [1, 7]: 239.4 pg/mL
MFI, CCL20/MIP-3 alpha [1, 7]: 254.8
conc/live cell, CCL20/MIP-3 alpha [1, 7]: 42.0 pg/10^5
Concentration, CCL20/MIP-3 alpha [1, 8]: 238.3 pg/mL and 231.6 pg/mL and 248.4 pg/mL
MFI, CCL20/MIP-3 alpha [1, 8]: 253.5 and 245.5 and 265.5
conc/live cell, CCL20/MIP-3 alpha [1, 8]: 36.1 pg/10^5 and 46.3 pg/10^5 and 43.6 pg/10^5
Concentration, CCL20/MIP-3 alpha [1, 9]: 211.3 pg/mL
MFI, CCL20/MIP-3 alpha [1, 9]: 221.5
conc/live cell, CCL20/MIP-3 alpha [1, 9]: 42.2 pg/10^5
Concentration, CCL20/MIP-3 alpha [1, 10]: 203.6 pg/mL and 208.7 pg/mL and 221.5 pg/mL
MFI, CCL20/MIP-3 alpha [1, 10]: 212.5 and 218.5 and 233.5
conc/live cell, CCL20/MIP-3 alpha [1, 10]: 37.0 pg/10^5 and 43.5 pg/10^5 and 46.1 pg/10^5
Concentration, CCL20/MIP-3 alpha [1, 11]: 230.3 pg/mL
MFI, CCL20/MIP-3 alpha [1, 11]: 244.0
conc/live cell, CCL20/MIP-3 alpha [1, 11]: 43.9 pg/10^5
Concentration, CCL20/MIP-3 alpha [1, 12]: 234.1 pg/mL and 222.3 pg/mL and 234.5 pg/mL
MFI, CCL20/MIP-3 alpha [1, 12]: 248.5 and 234.5 and 249.0
conc/live cell, CCL20/MIP-3 alpha [1, 12]: 43.4 pg/10^5 and 38.3 pg/10^5 and 49.9 pg/10^5
Concentration, CCL20/MIP-3 alpha [1, 13]: 323.4 pg/mL
MFI, CCL20/MIP-3 alpha [1, 13]: 356.5
conc/live cell, CCL20/MIP-3 alpha [1, 13]: 53.3 pg/10^5
Concentration, CCL20/MIP-3 alpha [1, 14]: 342.2 pg/mL and 319.4 pg/mL and 308.7 pg/mL
MFI, CCL20/MIP-3 alpha [1, 14]: 379.5 and 351.5 and 338.5
conc/live cell, CCL20/MIP-3 alpha [1, 14]: 56.1 pg/10^5 and 52.4 pg/10^5 and 51.5 pg/10^5
GM-CSF Concentration [2, 3]: 97.0 pg/mL
GM-CSF conc/live cell [2, 3]: 18.3 pg/10^5
GM-CSF Concentration [2, 15]: 92.5 pg/mL and 96.3 pg/mL and 102.1 pg/mL
GM-CSF conc/live cell [2, 15]: 20.6 pg/10^5 and 16.6 pg/10^5 and 17.6 pg/10^5
GM-CSF Concentration [2, 5]: 103.2 pg/mL
GM-CSF conc/live cell [2, 5]: 17.9 pg/10^5
GM-CSF Concentration [2, 16]: 90.4 pg/mL and 108.0 pg/mL and 111.3 pg/mL
GM-CSF conc/live cell [2, 16]: 14.3 pg/10^5 and 17.4 pg/10^5 and 21.8 pg/10^5
GM-CSF Concentration [2, 7]: 95.6 pg/mL
GM-CSF conc/live cell [2, 7]: 16.7 pg/10^5
GM-CSF Concentration [2, 17]: 100.5 pg/mL and 90.8 pg/mL and 95.4 pg/mL
GM-CSF conc/live cell [2, 17]: 15.2 pg/10^5 and 18.2 pg/10^5 and 16.7 pg/10^5
GM-CSF Concentration [2, 9]: 93.9 pg/mL
GM-CSF conc/live cell [2, 9]: 18.7 pg/10^5
GM-CSF Concentration [2, 18]: 96.3 pg/mL and 92.5 pg/mL and 92.9 pg/mL
GM-CSF conc/live cell [2, 18]: 17.5 pg/10^5 and 19.3 pg/10^5 and 19.4 pg/10^5
GM-CSF Concentration [2, 11]: 98.2 pg/mL
GM-CSF conc/live cell [2, 11]: 18.7 pg/10^5
GM-CSF Concentration [2, 19]: 103.0 pg/mL and 92.9 pg/mL and 98.8 pg/mL
GM-CSF conc/live cell [2, 19]: 19.1 pg/10^5 and 16.0 pg/10^5 and 21.0 pg/10^5
GM-CSF Concentration [2, 13]: 135.7 pg/mL
GM-CSF conc/live cell [2, 13]: 22.4 pg/10^5
GM-CSF Concentration [2, 20]: 149.0 pg/mL and 127.8 pg/mL and 130.3 pg/mL
GM-CSF conc/live cell [2, 20]: 24.4 pg/10^5 and 21.0 pg/10^5 and 21.7 pg/10^5
